In paper PMC7286421 (Hypertension (Dallas, Tex. : 1979), 2019):
Where a SMILES comes first, the peptide text is derived from it. The star is where a group is joined. Cbz = O=C(OCc1ccccc1)*

Key:
lung tissue = assay: Ex vivo Ang-; type: biochemical, mouse; settings: lung tissue (Supplement Figure S4b)
lung lysates = assay: Ex vivo Ang-; settings: for peak Ang-(1-7) at 15 min: no inhibitor (Figure 4b)
mouse serum = assay: Ex vivo Ang-; type: biochemical
PRCP = settings: selective for POP in the 10 μM range; cited from earlier work
kidney lysates = assay: Ex vivo Ang-; type: biochemical, mouse
Ang II = assay: In vitro Phenylalanine formation from Ang II by recombinant enzymes; type: biochemical; settings: equivalent amounts of murine recombinant enzymes, fluorometric (Figure 6c)
[1] = Plasma angiotensin peptide levels after i.p. Ang II injection; type: in vivo, mice
[2] = WT sera incubated with Ang II, ZPP 10^−5M, n=6
[3] = WT mice, Ang II i.p., 5 minutes, LC/MS-MS, n=6, mean ± SE
[4] = ACE2−/−/PRCP−/− sera incubated with Ang II, n=3

O=C(O)CNC(=O)C(CS)Cc1ccccc1 (stereo not drawn) [Thiorphan]
peak formation of Ang-(1-7) from exogenous Ang I with inhibitor (lung tissue): reduced the peak level of Ang-(1-7) from Ang I to an extent similar to S-17092

O=C[C@@H]1CCCN1C(=O)[C@@H]1CCCN1C(=O)OCc1ccccc1 [ZPP, Z-Pro-Prolinal] (Cbz-Pro-Pro-aldehyde)
Ang-(1-7) formation from Ang II with ZPP (lung lysates; lung lysates from both WT and ACE2−/−/PRCP−/− mice (Figure 4b)): completely prevented | Ang-(1-7) formed at 15 minutes with ZPP (mouse serum; [2]): 4.5 ± 4.5 pmol/mL | Ang-(1-7) formed at 30 minutes with ZPP (mouse serum; [2]): 8.9 ± 4.5 pmol/mL | lowering of Ang-(1-7) formation at 15 minutes (mouse serum; WT sera, ZPP 10^−5M): 85,8% | lowering of Ang-(1-7) formation at 30 minutes (mouse serum; WT sera, ZPP 10^−5M): 72% | concentration at which ZPP also inhibits PRCP (PRCP): > 100 µM | Ang-(1-7) levels with ZPP (kidney lysates; ACE2−/−/PRCP−/− kidney lysates, ZPP, n=7, all time points assessed): undetectable | Ang-(1-7) formation at 15 minutes with ZPP (kidney lysates; WT kidney lysates spiked with Ang II plus ZPP): 417 ± 32 pmol/mL

CC(C)C[C@H](N[C@@H](Cc1cncn1Cc1cc(Cl)cc(Cl)c1)C(=O)O)C(=O)O [MLN-4760]
effect of MLN-4760 on Ang-(1-7) formation (lung lysates; POP−/− lungs (Figure 4d)): no effect | generation of Ang-(1-7) from Ang II with MLN-4760 (kidney lysates; POP−/− kidney lysates, MLN-4760 10^−5M (Figure 4c)): completely obliterated

mrPOP: murine recombinant Prolyl Oligopeptidase
Phenylalanine generation from Ang II (Ang II): 127±12 RFU/ng

CC[C@H](C)[C@H](NC(=O)[C@H](Cc1ccc(O)cc1)NC(=O)[C@@H](NC(=O)[C@H](CCCNC(=N)N)NC(=O)[C@@H](N)CC(=O)O)C(C)C)C(=O)N[C@@H](Cc1cnc[nH]1)C(=O)N1CCC[C@H]1C(=O)N[C@@H](Cc1ccccc1)C(=O)O [Ang II, Angiotensin II]
levels of plasma Ang-(1-7) at 30 minutes ([1]; 30 minutes post infusion, WT, WT treated with ZPP, ACE2−/−/PRCP−/− (Figure S3b)): decreased markedly | levels of plasma Ang II at 30 minutes ([1]; 30 minutes post infusion, all four groups studied (Figure S3a)): markedly decreased | plasma Ang-(1-7) levels ([1]; ACE2−/−/PRCP−/− mice, 5 minutes after Ang II infusion, no ZPP (Figure 2b)): 537 ± 70 fmol/mL | plasma Ang-(1-7) levels ([1]; POP−/− mice, 5 minutes after Ang II i.p. (Figure 3d)): 309 ± 46 fmol/mL | plasma Ang-(1-7) to Ang II ratio ([1]; POP−/− mice, after Ang II infusion): 0.23±0.02 | plasma Ang-(1-7) levels ([1]; WT mice (controls of POP−/−), 5 minutes after Ang II i.p. (Figure 3d)): 472 ± 28 fmol/mL | plasma Ang-(1-7) levels ([1]; WT mice, 5 minutes after Ang II infusion, no ZPP (Figure 2b)): 563 ± 51 fmol/mL | plasma Ang II levels in Ang II-infused vs control animals ([1]; WT mice, 5 minutes, ELISA): about 100 fold | plasma Ang-(1-7) levels ([1]; WT mice, Ang II 0.2 μg/g BW i.p., 5 minutes, ELISA, n=6, mean ± SE): 1268 ± 439 fmol/mL | plasma Ang-(1-5) [1, 3]: 233 ± 24 fmol/mL | plasma Ang-(1-7) [1, 3]: 854 ± 222 fmol/mL | plasma Ang-(1-7) levels ([1]; WT mice, Ang II i.p., 5 minutes, RIA, same plasma samples, mean ± SE): 1702 ± 268 fmol/mL | peak Ang-(1-7) at 15 min (lung lysates; ACE2−/−/PRCP−/− lung lysates incubated with Ang II): 313 ± 31 pmol/mL | peak Ang-(1-7) at 15 min (lung lysates; WT lung lysates incubated with Ang II): 230 ± 33 pmol/mL | Ang-(1-7) formation from Ang II (lung lysates; lung lysates from POP−/− mice, no inhibitor (Figure 4d)): almost undetectable | peak Ang-(1-7) formation at 15 minutes (lung lysates; lung lysates, Ang II without S-17092 (Supplement figure S4a)): 182.8 ± 23 pmol/mL | Ang-(1-7) formed at 15 minutes (mouse serum; [4]): 17.8 ± 6 pmol/mL | Ang-(1-7) formed at 30 minutes (mouse serum; [4]): 17 ± 7 pmol/mL | Ang-(1-7) formed at 30 minutes (mouse serum; WT sera incubated with Ang II, no ZPP, n=6): 31.8 ± 6.7 pmol/mL | amount of Ang-(1-7) formed from Ang II (mouse serum; sera from POP−/− mice (n=4) compared to ACE2−/−/PRCP−/− and WT mice): markedly reduced | peak Ang-(1-7) levels (kidney lysates; ACE2−/−/PRCP−/− kidney lysates spiked with Ang II, no inhibitor): 94 ± 18 pmol/mL | peak Ang-(1-7) formation at 15 minutes (kidney lysates; WT kidney lysates spiked with Ang II, no inhibitor, n=10): 417 ± 32 pmol/mL | Ang-(1-7) formation from Ang II over time, POP−/− vs WT (kidney lysates; kidneys from WT and POP−/− mice, no inhibitor (Figure 4c)): almost identical

B1: mrACE2: murine recombinant Angiotensin Converting Enzyme 2 (protein, UniProt Q8R0I0 18-805, looked up)
Angiotensin-converting enzyme …: QSLTEENAKTFLNNFNQEAEDLSYQSSLASWNYNTNITEENAQKMSEAAAKWSAFYEEQSKTAQSFSLQEIQTPIIKRQLQALQQSGSSALSADKNKQLNTILNTMSTIYSTGKVCNPKNPQECLLLEPGLDEIMATSTDYNSRLWAWEGWRAEVGKQLRPLYEEYVVLKNEMARANNYNDYGDYWRGDYEAEGADGYNYNRNQLIEDVERTFAEIKPLYEHLHAYVRRKLMDTYPSYISPTGCLPAHLLGDMWGRFWTNLYPLTVPFAQKPNIDVTDAMMNQGWDAERIFQEAEKFFVSVGLPHMTQGFWANSMLTEPADGRKVVCHPTAWDLGHGDFRIKMCTKVTMDNFLTAHHEMGHIQYDMAYARQPFLLRNGANEGFHEAVGEIMSLSAATPKHLKSIGLLPSDFQEDSETEINFLLKQALTIVGTLPFTYMLEKWRWMVFRGEIPKEQWMKKWWEMKREIVGVVEPLPHDETYCDPASLFHVSNDYSFIRYYTRTIYQFQFQEALCQAAKYNGSLHKCDISNSTEAGQKLLKMLSLGNSEPWTKALENVVGARNMDVKPLLNYFQPLFDWLKEQNRNSFVGWNTEWSPYADQSIKVRISLKSALGANAYEWTNNEMFLFRSSVAYAMRKYFSIIKNQTVPFLEEDVRVSDLKPRVSFYFFVTSPQNVSDVIPRSEVEDAIRMSRGRINDVFGLNDNSLEFLGIHPTLEPPYQPPVTIWLIIFGVVMALVVVGIIILIVTGIKGRKKKNETKREENPYDSMDIGKGESNAGFQNSDDAQTSF
Phenylalanine generation from Ang II (Ang II): 789±29 RFU/ng
